From US20140135359A1, “METHODS OF DESIGNING, PREPARING, AND USING NOVEL PROTONOPHORES” (priority 2012, published 2014)

How the values were obtained:
[1] = system: isolated rat liver mitochondria; assay: Uncoupling activity: increase in basal (state 4) oxygen consumption by oxygraphy; assay type: biochemical; conditions: for Uncoupling (%): increase in basal (state 4) oxygen consumption as % of average ADP-stimulated (state 3) rate in vehicle-treated mitochondria; for Measured Uncoupling Activity (% uncoupling ± SEM @ 100 μM): Suppl. Table 1, 2-3 mitochondrial preparations; for Measured Uncoupling (% uncoupling ± SEM @ 100 μM): Table 1A, relative to ADP-stimulated respiration = 100%
[2] = system: isolated rat liver mitochondria; assay: Residual functional capacity / inhibitory effect on ADP-stimulated (state 3) oxygen consumption; assay type: biochemical; conditions: for Residual capacity (%): functional capacity (state 3 minus state 4 rate) as % of vehicle-treated mitochondria; for inhibitory effect on oxidative phosphorylation: 50 μM (FIG. 19)
[3] = system: C2C12 myotubes; assay: Morphology / monolayer detachment inspection of treated myotubes; assay type: cell-based, murine; conditions: 100 μM, 18 h
Experimental: 2.3 ^3H-deoxyglucose uptake in C2C12 myotubes: Cell culture and the ^3H-deoxyglucose uptake assay were performed as previously described [34B, 35B, 37B]. Briefly, C2C12 murine skeletal myoblasts (American Type Culture Collection; Manassas, Va.) were cultured under standard conditions in 12-well plates. Cells were proliferated to 80% confluence in high-glucose Dulbecco's modified Eagle's medium (DMEM; Wisent; St-Bruno, QC) supplemented with 10% fetal bovine serum (FBS; Wisent), 10% horse serum (HS), and antibiotics. Differentiation into multinucleated myotubes was then promoted with DMEM supplemented with 2% HS and antibiotics. All uptake assays were performed on 7-day differentiated cells, and treatments were timed accordingly. […] DMSO concentration was fixed at 0.1% for all conditions. Cells were routinely inspected for abnormal morphology by phase-contrast microscopy at the conclusion of the treatment period. […] Cells were then washed twice in glucose-free KPB at 37° C. before incubation for exactly 10 min at 37° C. in glucose-free KPB containing 0.5 μCi/ml 2-deoxy-D-[1-^3H]glucose (Amersham Biosciences; Buckinghamshire, UK). Cells were then placed on ice and immediately washed three times with ice-cold KPB. Cells were inspected for monolayer detachment and lysed in 0.1 N NaOH with scraping. […]

[4] = system: differentiated C2C12 skeletal muscle cells; assay: 3H-deoxyglucose uptake in C2C12 myotubes; assay type: cell-based, murine; conditions: 18 h
Experimental: 2.3 ^3H-deoxyglucose uptake in C2C12 myotubes: Cell culture and the ^3H-deoxyglucose uptake assay were performed as previously described [34B, 35B, 37B]. Briefly, C2C12 murine skeletal myoblasts (American Type Culture Collection; Manassas, Va.) were cultured under standard conditions in 12-well plates. Cells were proliferated to 80% confluence in high-glucose Dulbecco's modified Eagle's medium (DMEM; Wisent; St-Bruno, QC) supplemented with 10% fetal bovine serum (FBS; Wisent), 10% horse serum (HS), and antibiotics. Differentiation into multinucleated myotubes was then promoted with DMEM supplemented with 2% HS and antibiotics. All uptake assays were performed on 7-day differentiated cells, and treatments were timed accordingly. […] DMSO concentration was fixed at 0.1% for all conditions. Cells were routinely inspected for abnormal morphology by phase-contrast microscopy at the conclusion of the treatment period. […] Cells were then washed twice in glucose-free KPB at 37° C. before incubation for exactly 10 min at 37° C. in glucose-free KPB containing 0.5 μCi/ml 2-deoxy-D-[1-^3H]glucose (Amersham Biosciences; Buckinghamshire, UK). Cells were then placed on ice and immediately washed three times with ice-cold KPB. Cells were inspected for monolayer detachment and lysed in 0.1 N NaOH with scraping. […] Three independent experiments of 18 h treatment duration were performed for each of the selected test compounds, with three replicates per condition per experiment. Vehicle-control and 50 μM 2,4-dinitrophenol conditions were included on every plate. Some compounds were also tested at 50 μM under the following conditions: a 15 h treatment with vehicle only followed by a 3 h treatment with the test compound; a 15 h treatment with the test compound followed by a 3 h repeat treatment.
Protocol for ^3H-deoxyglucose uptake assay in C2C12 or other skeletal muscle cells; C2C12 murine skeletal myoblasts (American Type Culture Collection; Manassas, Va.) may be cultured under standard conditions in 12-well plates. Cells may be proliferated to 80% confluence in high-glucose Dulbecco's modified Eagle's medium (DMEM) supplemented with 10% fetal bovine serum (FBS), 10% horse serum (HS), and antibiotics. Differentiation into multinucleated myotubes may be then promoted with DMEM supplemented with 2% HS and antibiotics. All uptake assays may be performed on 7-day differentiated cells, and treatment onset may be timed accordingly. Cells may be treated with reference substances (such as metformin (100 or 400 μM), phenformin (100 μM), or 2,4-dinitrophenol 10-100 μM), compounds described herein, or vehicle (DMSO) in complete differentiation medium. DMSO concentration may be fixed at 0.1% for all conditions. Cells may be routinely inspected for abnormal morphology by phase-contrast microscopy at the conclusion of the treatment period. […] Cells may be then washed twice in glucose-free KPB at 37° C. before incubation for exactly 10 min at 37° C. in glucose-free KPB containing 0.5 μCi/ml 2-deoxy-D-[1-3H]glucose (Amersham Biosciences; Buckinghamshire, UK). Cells may be then placed on ice and immediately washed three times with ice-cold KPB. Cells may be inspected for monolayer detachment and lysed in 0.1 N NaOH with scraping. […] Three or more independent experiments of 18 hours treatment duration may be performed for each test compound, with three or more replicates per condition per experiment. Vehicle-control and 2,4-dinitrophenol conditions may be included on every plate for the purpose of standardizing.

[5] = system: glucose-6-phosphatase (G6Pase) activity in H4IIE hepatocytes; assay: Glucose-6-phosphatase activity in H4IIE hepatocytes; assay type: cell-based, murine; conditions: 16 h; for suppression of G6Pase activity: 12.5 μM, result in words
Experimental: 2.4 Glucose-6-phosphatase activity in H4IIE hepatocytes: H4IIE murine hepatocytes (American Type Culture Collection) were cultured to confluence in 12-well plates in DMEM supplemented with 10% FBS and antibiotics. […] Effects of test compounds on cellular viability were assessed by measuring the release of lactate dehydrogenase (LDH) into the culture medium at the end of a 16 h treatment using a commercial kit (Cytotoxicity Detection Kit; Roche Diagnostics; Laval, QC) as per the manufacturer's instructions; LDH release was expressed as % of total (medium+lysate) LDH content for each well. Cells were also routinely inspected for abnormal morphology by phase-contrast microscopy at the conclusion of the treatment period. Following treatment, cells were washed in HEPES-buffered saline (10 mM HEPES, pH 7.4, 150 mM NaCl) at 37° C. Glucose-6-phosphatase (G6Pase) activity was assessed by measuring the rate of glucose formation in the presence of a non-limiting amount of glucose-6-phosphate (G6P), as done by others [39B, 40B]. Glucose production was measured with a commercial glucose assay kit (AutoKit Glucose; Wako Diagnostics; Richmond, Va.). Two hundred μl of AutoKit Glucose buffer solution diluted 1:4 in water were added to each well. Cells were then lysed by the addition of 50 μl of 0.05% Triton X-100 in similarly diluted AutoKit Glucose buffer solution. […] At 37° C., after which time 500 μl of AutoKit Glucose color reagent were added and incubation was continued for exactly 5 min. Samples were then rapidly transferred to microcentrifuge tubes. Fifty μl were removed for assay of total protein content in order to account for effects of test compounds on cellular viability or proliferation [41B]. A commercial protein assay kit based on the Bradford method was used (Protein Assay; Bio-Rad Laboratories; Hercules, Calif.). […] The remaining volume was centrifuged at 3000×g for 5 min. Absorbance of the supernatant was measured at 505 nm at ambient temperature and glucose concentration was calculated from a standard curve performed in parallel. Control wells without exogenous G6P were included on each plate for each treatment condition and activity measured from these wells was subtracted from activity measured in the presence of exogenous G6P. G6Pase activity calculated in this way was then expressed normalized to protein content on a well-by-well basis. Two independent experiments in cells of different passages were performed for each of the selected test compounds, with four to six replicates per condition per experiment.
Protocol for assay of glucose-6-phosphatase activity in H4IIE or other hepatocytes: H4IIE murine hepatocytes (American Type Culture Collection) may be cultured to confluence in 12-well plates in Dulbecco's modified Eagle's medium (DMEM) supplemented with 10% fetal bovine serum (FBS), and antibiotics. […] Effects of test compounds on cellular viability may be assessed by measuring the release of lactate dehydrogenase (LDH) into the culture medium at the end of a 16 hour treatment using a commercial kit (e.g., Cytotoxicity Detection Kit; Roche Diagnostics; Laval, QC) as per the manufacturer's instructions; LDH release may be expressed as % of total (i.e., medium+lysate) LDH content for each well. Cells may also be routinely inspected for abnormal morphology by phase-contrast microscopy at the conclusion of the treatment period. Following treatment, cells may be washed in HEPES-buffered saline (10 mM HEPES, pH 7.4, 150 mM NaCl) at 37° C. Glucose-6-phosphatase (G6Pase) activity may be assessed by measuring the rate of glucose formation in the presence of a non-limiting amount of glucose-6-phosphate (G6P). Glucose production may be measured with a commercial glucose assay kit (e.g., AutoKit Glucose; Wako Diagnostics; Richmond, Va.). Two hundred μl of AutoKit Glucose buffer solution diluted 1:4 in water may be added to each well.

SMILES	Uncoupling (%) ([1]; test conc. 25 μM)	Uncoupling (%) ([1]; test conc. 100 μM)	Inhibitory effect (%) ([2]; test conc. 25 μM)	Residual capacity (%) ([2]; test conc. 25 μM)	Inhibitory effect (%) ([2]; test conc. 100 μM)	Residual capacity (%) ([2]; test conc. 100 μM)	indications of cytotoxicity [3]	uncoupling activity ([1]; 50 μM in 0.1% DMSO (FIG. 19))	Measured Uncoupling Activity (% uncoupling ± SEM @ 100 μM) ([1]; 100 μM)	Measured Uncoupling (% uncoupling ± SEM @ 100 μM) ([1]; 100 μM)	inhibitory effect on oxidative phosphorylation [2]	increase in basal glucose uptake ([4]; at ⅛th of metformin's concentration (400 μM))	effect on basal glucose uptake relative to metformin ([4]; metformin 400 μM)	suppression of G6Pase activity [5]	increase in basal glucose uptake ([4]; 400 μM)	suppression of G6Pase activity per mg total protein ([5]; 400 μM)	uncoupling activity ([1]; 100 μM, result in words)	inhibition of ADP-stimulated oxygen consumption ([2]; screening at 100 μM)
COc1cc(/C=C/C(=O)CC(=O)/C=C/c2ccc(O)c(OC)c2)ccc1O [curcumin]	42 ± 8%	79 ± 6%	17%	41 ± 9%	21%	0 ± 0%	increased susceptibility to monolayer detachment	–	–	–	–	–	–	–	–	–	–	–
O=C(/C=C/c1ccc(O)c(O)c1)c1ccc(O)cc1O [butein]	26 ± 4%	71 ± 4%	23%	51 ± 12%	29%	0 ± 0%	–	partial uncoupling	71 ± 4 % uncoupling	71 ± 4 % uncoupling	inhibition of ADP-stimulated consumption	269%	more than 6 fold	exceeding the effect of metformin at 400 μM	–	–	–	–
O=c1c(O)c(-c2ccc(O)cc2)oc2cc(O)cc(O)c12 [kaempferol]	10 ± 1%	25 ± 2%	28%	62 ± 5%	47%	28 ± 4%	decreased uptake relative to vehicle-control levels	–	25 ± 2 % uncoupling	–	–	–	–	–	–	–	–	–
CN(C)C(=N)N=C(N)N [metformin]	–	–	–	–	–	–	–	–	–	–	–	–	–	–	43%	56%	–	–
O=C(/C=C/c1ccc(O)cc1)c1ccc(O)cc1O [isoliquiritigenin]	24 ± 3%	108 ± 7%	11%	65 ± 6%	0%	0 ± 0%	–	–	108 ± 7 % uncoupling	>100 % uncoupling	–	–	–	exceeding the effect of metformin at 400 μM	–	–	complete uncoupling	–
O=C(/C=C/c1ccccc1)c1ccccc1 [chalcone]	–	−6 ± 0%	–	–	65%	35 ± 5%	–	devoid of uncoupling activity	−6 ± 0 % uncoupling	–	small inhibitory effect	–	–	did not suppress G6Pase activity	–	–	inactive	inhibitory activity
